Measured values: patent US10172962B2, “Macromolecular delivery systems for non-invasive imaging, evaluation and treatment of arthritis and other inflammatory diseases” (University of Utah Research Foundation, priority 2004, dated 2019)

Columns and labels:
Assay type in all cases: in vivo, rat
AIA rats [1] = experiment: Treatment of AIA rats: bone mineral density by peripheral dual x-ray absorptiometry; conditions: 7/group, FIG. 8
Procedure: The bone mineral density (BMD) of the bones in the arthritic joints was measured by peripheral dual x-ray absorptiometry (pDXA, Norland Medical Systems) adapted for small animals. For this the intact hind limbs were used and the scan region included the ankle and foot bones. The coefficient of variation between measurements was less than 1%.
One of the significant impacts of rheumatoid arthritis inflammation is the damage to the bone in the joints, which is evident in FIG. 8 of the animals with no treatment (saline). […] However, such improvement can be greatly strengthened if Dex is conjugated to HPMA copolymer. […] A more dynamic factor to consider in the bone metabolism is the extent of bone erosion. The bone eroded surface directly correlates with the recruitment and activity of osteoclasts, which are the cells responsible for bone resorption and the development of bone damage. In FIG. 9, the bone erosion surface data for all the treatment groups is summarized. […] The histology analysis of the arthritic joints with different treatments also confirmed the superiority of the P-Dex treatment (FIG. 10).

AIA rats [2] = experiment: Treatment of AIA rats: ankle joint swelling (caliper diameter)
Procedure: (§1) Male Lewis rats (175-200 g) were obtained from Charles River Laboratories (Portage, Mich.) and allowed to acclimate for at least one week. To induce arthritis, Mycobacterium Tuberculosis H37Ra (1 mg) and LA (5 mg) were mixed in paraffin oil (100 μL), sonicated and s.c. injected into the base of the rat's tail (20). The rats were then randomized into 3 rats/group. The progression of the joint inflammation was followed by measuring the diameter of the ankle joint with calipers. Special care was given to the rats as the inflammation developed to ensure availability and access to water and food. The MRI contrast agents used for the study were injected directly into the jugular vein while the animal was anesthetized with Ketamine and Xylazine.
. Hydrazine was used as the targeting moiety, as it may bind to negative charged moieties on cartilage. The anti-arthritic drug, dexamethasone, was linked to the polymer backbone (P-Dex) via a pH sensitive hydrozone bond as illustrated in FIG. 6. The polymer with the hydrazine and dexamethasone attached was then injected into AIA rats (4/group) on day 13 after the induction of arthritis. A single dose of 10 mg (P-Dex)/kg was given. […]

healthy rats = experiment: Evans blue dye injection in healthy control rats; conditions: EB 10 mg/kg tail vein
Procedure: (§2) Evans blue dye (EB, 10 mg/kg in saline) was injected into healthy and AIA rats via the tail vein. The extravasation and accumulation of dye in the areas of joint inflammation could be visually observed as appearance of the blue pigment. Photographs of the ankle and paws were taken before and 8 hours after injection.
For this experiment, EB was injected into the rats 15 days after injection of the adjuvant. By this time, there is a robust inflammatory reaction evident in the ankle joints. […] Some deep blue spots were also observed on some digits of the paw. Photographs taken before and after injection of the EB dye confirm that the areas with dye accumulation correspond to those with marked inflammation.

AIA rats [3] = experiment: Visualization of plasma albumin accumulation with Evans blue dye in AIA rats
Procedure: as §1, §2
For this experiment, EB was injected into the rats 15 days after injection of the adjuvant. By this time, there is a robust inflammatory reaction evident in the ankle joints. […] Some deep blue spots were also observed on some digits of the paw. […]

SMILES	bone mineral density (BMD) / bone preservation of the arthritic joints (AIA rats [1])	ankle joint swelling after the injections on day 13 (AIA rats [2]; P-Dex single dose 10 mg/kg day 13, Dex same dose divided in 4 daily doses day 13-16)	course of inflammation after cessation of the daily Dex injections (AIA rats [2]; P-Dex single dose day 13, Dex 4 daily doses day 13-16)	localization of dye to joint areas (healthy rats)	accumulation of dye in inflamed paws (AIA rats [3]; AIA rats, EB 10 mg/kg tail vein, 15 days after adjuvant)	nonspecific transfer of dye to other tissues (AIA rats [3]; organs including liver and heart)
C[C@@H]1C[C@H]2[C@@H]3CCC4=CC(=O)C=C[C@]4(C)[C@@]3(F)[C@@H](O)C[C@]2(C)[C@@]1(O)C(=O)COP(=O)(O)O [Dex, Dexamethasone sodium phosphate]	can slow bone erosion	dramatic decrease of ankle joint swelling	the inflammation rapidly got worse			
Cc1cc(-c2ccc(/N=N/c3ccc4c(S(=O)(=O)O)cc(S(=O)(=O)O)c(N)c4c3O)c(C)c2)ccc1/N=N/c1ccc2c(S(=O)(=O)O)cc(S(=O)(=O)O)c(N)c2c1O [EB, Evans blue]				the dye was not localized to joint areas	gradual accumulation of blue color in the inflamed hind paw and front paws	a slight blue staining was evident in some organs
